In patent publication US11104630B2, “Synthesis of mono-chlorinated acetophenone” (SIEGFRIED AG, priority 2017, dated 2021):

Experiment: Solubility of the starting material in the solvent
Format: physicochemical
Conditions: solvent MTBE, 20° C., until clear solution
Description: Solubility of the Starting Material in the Solvent
To 1 g of HAP is added 5 ml of solvent. The mixture is stirred in a water bath at 20° C. The solvent is further slowly added under stirring until a clear solution appears.
The amount of used solvent is noted.

## CC(=O)c1cccc(O)c1 [HAP, 3-hydroxy-acetophenon]
  Solvent in ml per g HAP: 9 ml per g HAP
